Values joined by “and” are separate entries in the source; they are usually repeats but may differ in a detail not shown here. Equal values may be shown once.
Tests used:
[1] = system: murine PPARγ Ser273 phosphorylation; assay: PPARγ Ser273 phosphorylation in adipose tissue of mice; type: in vivo, mouse; conditions: 40 mg/kg/day, 3 weeks, HFHSD
Procedure: The epididymal adipose tissues were obtained and lysed in RIPA buffer supplemented with 1X cOmplete™, EDTA-free Protease Inhibitor Cocktail (cat no.04693132001, Roche) and 1X PhosSTOP™ (cat. no. 4906845001, Roche).
The protein concentrations of tissue lysates were measured by Bradford reagent (cat. no. BP500-0006, Bio-Rad). The protein samples were mixed with 6X sample buffer (0.3 M Tris-HCl, pH 6.8, 0.6 M DTT, 12% SDS, 0.6% Bromophenel blue and 60% glycerol) and heated at 70 °C for 5 min. 30 μg of each sample were separated by 10% SDS-PAGE gel and were transferred to PVDF membrane. The membrane was blocked by 3% BSA in Tris-buffered saline containing 0.1% Tween-20 for 1 h at room temperature and incubated with primary antibody at 4 °C overnight. Primary antibodies include anti-Ser273 phospho-PPARγ (1:1000, cat. no. BS-4888R, Bioss), anti-PPARγ (1:1500, cat. no.16643-1-AP, Proteintech) and anti-GAPDH (1:5000, cat. no. GTX100118, GeneTex). On the next day, the membranes were incubated with the anti-rabbit IgG HRP-secondary antibody (1:10,000, cat. no. GTX213110-01, GeneTex) for 1 h at RT. Immunoblots were developed using the Immobilon Forte Western HRP Substrate (cat. no. WBLUF0500, Lot Number: 231445, Millipore) and exposed by MultiGel-21 (cat. no. MGIS-21-C2, EBL). Protein expression of phospho-PPARγ was analyzed using ImageJ software and normalized against PPARγ and GAPDH.

[2] = Pharmacokinetic study in male ICR mice; type: in vivo, mouse; conditions: plasma
Procedure: Male ICR mice weighing 25–30 g each were obtained from BioLASCO, Taiwan Co., Ltd., Ilan, Taiwan for pharmacokinetic study. Briefly, a single dose of BRRPT245 was given intravenously at 2 mg/kg or oral gavage at 10 mg/kg to the mice. Blood samples were taken at 0 (immediately before dosing), 2, 5 (iv only), 15 and 30 min and at 1, 2, 4, 6, 8, 16, and 24 h after administration. The T1/2 (half-life), Cl (clearance), Vss (steady-state volume of distribution), AUC (area under curve), Cmax (maximum plasma concentration), Tmax (time taken to reach Cmax), and F(bioavailability%) were calculated according to the published formula (Urso et al, [2002]).
The HPLC system consisted of an Agilent 1200 series LC System with BinPump (Waldbronn, Germany) and an Agilent Eclipse XDB C8 (3.0 × 150 mm, 5 µm) interfaced to a Sciex API 4000 tandem mass spectrometer. Mobile phase consisted of 10 mM ammonium acetate containing 0.1% of formic acid (Solvent A) and acetonitrile (Solvent B). For determination of BPTPT0245, the following stepwise gradient system was used: 85% A (0–0.5 min), 85% A to 15% A (0.6–3.0 min), 5% A (3.1–5.0 min). Total running time was 5 min. The retention times of BPRPT0245 and BPR0L187 (internal standard) (IS) were 2.21 and 2.42 min, respectively. Data acquisition was via selected ion monitoring (SIM). The collision energy was +37 V for the analyte and +38.5 V for IS, respectively. The ions monitored for BPRPT0245 were m/z 447/189 and m/z 357/195, respectively. […] Total running time was 6 min. […] Data acquisition was via SIM.
To prepare the BPRPT0245 plasma samples, 50 µL of the plasma sample mixed with 100 µL acetonitrile containing […] of BPR0L187. The mixture was vortexed for 30 s and then centrifuged at 15,000 rpm for 20 min in an Eppendorf Model 5417c centrifuge at room temperature. An aliquot (5 µL) of the mixture was then injected onto to LC-MS/MS.

human PTGR2 (hPTGR2) = biological target: T1, human PTGR2 (hPTGR2) (Homo sapiens, UniProt Q8N8N7); assay: Recombinant human PTGR2 enzymatic inhibition (NADPH-Glo), IC50; type: biochemical
T1 construct: made in house
Procedure: High-throughput compound screening was conducted at the core service in the Genomics Research Center (GRC) of Academia Sinica, Taiwan. The GRC 120 K ReSet comprises more than 125,000 compounds, selected as representatives by structural similarity clustered from the 2 M GRC compound library. The ReSet was arrayed in 1536-well plates as single compounds at 1 mM in 100% DMSO. The quality of all compounds was assured by the vendor (purity is greater than 90%) and was verified internally with 5% random sampling. Recombinant human PTGR2 protein was purified, and the screening was conducted using the NADPH-Glo Detection kit (Promega) to measure the amount of NADPH. The CV of HTS ranged from 4.8% to 6.1%, with a Z’ value of 0.7. The threshold was set as 1.5, resulting in ~300 hits for further confirmation and determination of the half-maximal inhibitory concentration (IC50). […]

T1 sequence (Q8N8N7 whole entry): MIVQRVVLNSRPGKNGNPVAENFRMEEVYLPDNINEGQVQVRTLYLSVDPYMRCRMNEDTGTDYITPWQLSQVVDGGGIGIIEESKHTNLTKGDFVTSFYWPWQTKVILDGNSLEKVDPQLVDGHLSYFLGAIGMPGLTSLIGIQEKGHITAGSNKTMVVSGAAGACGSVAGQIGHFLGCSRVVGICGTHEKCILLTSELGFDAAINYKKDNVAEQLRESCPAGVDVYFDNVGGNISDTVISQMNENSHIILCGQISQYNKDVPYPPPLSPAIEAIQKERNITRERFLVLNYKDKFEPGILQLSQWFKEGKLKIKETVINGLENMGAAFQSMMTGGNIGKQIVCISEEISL

Row | Structure (SMILES) | phosphorylation of PPARγ Ser273 [1] | AUC(0-inf) ([2]; Mouse IV, dose 2 mg/kg) | clearance ([2]; Mouse IV, dose 2 mg/kg) | half-life ([2]; Mouse IV, dose 2 mg/kg) | Vd ([2]; Mouse IV, dose 2 mg/kg, read-out: Vss) | AUC(0-inf) ([2]; Mouse PO, dose 10 mg/kg) | Cmax ([2]; Mouse PO, dose 10 mg/kg) | Tmax ([2]; Mouse PO, dose 10 mg/kg) | half-life ([2]; Mouse PO, dose 10 mg/kg) | bioavailability ([2]; Mouse PO, dose 10 mg/kg, read-out: F(%) bioavailability) | Figure 5B raw signal of the hPTGR2 inhibition dose-response (replicates) (human PTGR2 (hPTGR2); concentration 4.6 (unit not given)) | Figure 5B raw signal of the hPTGR2 inhibition dose-response (replicates) (human PTGR2 (hPTGR2); concentration 13.7 (unit not given)) | Figure 5B raw signal of the hPTGR2 inhibition dose-response (replicates) (human PTGR2 (hPTGR2); concentration 41.2 (unit not given)) | Figure 5B raw signal of the hPTGR2 inhibition dose-response (replicates) (human PTGR2 (hPTGR2); concentration 123.5 (unit not given)) | Figure 5B raw signal of the hPTGR2 inhibition dose-response (replicates) (human PTGR2 (hPTGR2); concentration 370.4 (unit not given)) | Figure 5B raw signal of the hPTGR2 inhibition dose-response (replicates) (human PTGR2 (hPTGR2); concentration 1111.1 (unit not given)) | Figure 5B raw signal of the hPTGR2 inhibition dose-response (replicates) (human PTGR2 (hPTGR2); concentration 3333.3 (unit not given)) | Figure 5B raw signal of the hPTGR2 inhibition dose-response (replicates) (human PTGR2 (hPTGR2); concentration 10000 (unit not given)) | IC50 (human PTGR2 (hPTGR2); human PTGR2 enzymatic activity)
1 | CCCCCC(=O)/C=C/[C@H]1[C@H](O)CC(=O)[C@@H]1C/C=C\CCCC(=O)O [15-keto-PGE2, 15-keto-prostaglandin E2] | dose-dependently reduced phosphorylation of Ser273 | – | – | – | – | – | – | – | – | – | – | – | – | – | – | – | – | – | –
2 | Cc1[nH]c2nc(C(C)N3CCN(c4ccccc4)CC3)nn2c(=O)c1Cc1ccc(F)cc1 (stereo not shown) [BPRPT0245] | – | 480 ng·h/mL | 79.5 mL/min/kg | 2 h | 5 L/kg | 725 ng·h/mL | 398 ng/mL | 0.4 h | 2.5 h | 30.2% | 5700 and 5540 | 12160 and 11080 and 9760 | 25040 and 27420 and 26900 | 32220 and 32000 and 34120 | 37280 and 38620 and 37900 | 40200 and 38760 and 38680 | 40060 and 40940 and 40560 | 42020 and 40520 and 40720 | 8.92 nM

Source: publication PMC12081876, “Identification of PTGR2 inhibitors as a new therapeutic strategy for diabetes and obesity” (EMBO Molecular Medicine, 2025)
